These results are taken from patent publication US20030134859A1 (SANKYO COMPANY, LIMITED, priority 2000, published 2003).

In test [1] the test system is Mouse preadipocyte strain 3T3-L1. Put plainly: Inhibition of differentiation as an indication of acetic acid uptake. The following applies: Mus musculus, 3T3-L1, 0.1 μM test substance, control (0.01% dimethylsulfoxide) = 100%, read-out: Rate of Uptake (%) of [2-14C] acetic acid. It is filed as cell-based. As for the experimental part:
As the basal medium, Dulbecco's modified Eagle's (DEM) medium (NISSUI PHARMACEUTICAL CO., LTD) was used. […] All culturing in the present Test Example was carried out in a CO2 incubator at 37° C. and 10% CO2 concentration.
The successively cultured 3T3-L1 cells were inoculated in a Biocoat Collagen I 96-well white/clear plate (Becton Dickinson and Co.) at a concentration of 4,900 cells/well, and were cultured in the basal medium containing added 10% (v/v) inactivated bovine fetal serum (FBS) for 10 days.
The medium was replaced with a differentiation-inducing medium in which inactivated FBS (final concentration: 5%), insulin (Sigma-Aldrich Japan K. K., final concentration: 10 μg/mL), isobutyl methyl xanthine (Aldrich K. K., final concentration: 0.5 mM) and dexamethazone (final concentration: 1 μM) were added so as to be at the final concentrations indicated in the parentheses. The cells were divided in the following 2 groups and were cultured for 4 days; 1) in the presence of 0.01% (v/v) dimethylsulfoxide, and 2) in the presence of 0.01% (v/v) dimethylsulfoxide in which was dissolved 1 mM of the test substance (final concentration of 0.1 μM). Then, the medium was further replaced with a maintenance medium in which inactivated […] and insulin were added to the base medium so as to be at final concentrations of 5% and 100 ng/mL, respectively, and the cells were cultured for 2 days.
The inhibitory activity of the test compound against cell differentiation was assayed by using uptake of [2-^14C] acetic acid into the cultured cells as an indicator. […] Then the cells were further incubated with the newly prepared medium for 1 hr. After washing the well with PBS (−), the cells were dried. To these wells, 100 μL/well of a scintillation cocktail (Hewlett-Packard Co., MICROSCINT-20 PACKARD) were added and their radioactivities were determined with a Packard TopCont microplate Scintillation Counter (Hewlett-Packard Co., PACKARD) and the uptake level of [2-^14C] acetic acid into the cultured cell was calculated.
On the basis of the calculated uptake level of [2-^14C] acetic acid into the cultured cells, the relative uptake level of [2-^14C] acetic acid in the group treated with the test compound was calculated against the uptake level of [2-^14C] acetic acid in the presence of 0.01% (v/v) dimethylsulfoxide solution described in 1) (100%).
Value=Uptake Level (cpm) of [2-^14C] Acetic Acid in the Presence of the Test Substance
Control=Uptake Level (cpm) of [2-^14C] Acetic Acid in the Control Group (0.01% dimethylsulfoxide)
Uptake Rate (%) of [2-^14C] Acetic Acid=100×[Value]/[Control]

The next test relates to Rat white adipocytes. In words: Stimulation of differentiation of the adipocytes (Oil Red O). It is filed as cell-based. The note with it: 100 nM test compound, 5 days, Oil Red O ABS550, control = 100%, blank = 0%, Table 7; for activity at 0.1 µM: Rattus norvegicus, Adipocyte, 120 h, read-out: Rate of Differentiation (%). As for the experimental part:
Rat white adipocytes contained in the white adipocyte culture kit, which was purchased from HOKUDO, were used. Mediums for proliferation and for differentiation-inducing, which were contained in the white adipocyte culture kit purchased from HOKUDO, were used.
Immediately after arrival of the purchased cells, all medium for transportation was discarded and replaced with 5 ml of proliferation medium (/25 cm^2-flask) and the cells were cultured for one day. Then, a cell suspension was prepared with proliferation medium so as to be 83,000 cells/mL, and the suspension was plated into a type I 96-well collagen-coated microplate (SUMITOMO BAKELITE CO., ltd.) so as to be 5,000 cells/well (60 μL/well). For the blank, the proliferation medium without the cells was plated into the well (blank well) of each plate.
Further, 1) in the group treated with the test compound, 3 μL/well of a solution in which the test compound (100 μM) was dissolved in DMSO solution and diluted with differentiation-inducing medium by 20 times (final concentration of the test compound: 100 nM, final concentration of DMSO: 0.1% (v/v)) were added to the well where the cells were plated. 2) In the control group, 3 μL/well of DMSO solution that was diluted with differentiation-inducing medium by 20 times (final concentration of DMSO: 0.1% (v/v)) were added to the well where the cells were plated. Further, 3) in the blank group, 3 μL/well of DMSO solution that was diluted with differentiation-inducing medium by 20 times (final concentration: 0.1% (v/v)) were added to the blank well.
After culturing for 5 days, all differentiation-inducing medium was discarded and replaced with 60 μL of 10% (v/v) of formaldehyde solution (for fixation) in each well and the cells were kept stationary for 20 min at room temperature. After this the fixative solution was discarded and replaced with 60 μL of 0.2% (v/v) Triton X (Sigma-Aldrich Japan K. K.) solution in each well and kept stationary for 5 min at the room temperature. Then all Triton X solution was discarded and replaced with 60 μL of 60% (v/v) isopropanol solution containing dissolved Oil Red 0 (Sigma-Aldrich Japan K. K.) so as to be 0.3%, which was adipose tissue staining solution, and the well was left stationary for 10 min at room temperature. After the adipose tissue staining solution was discarded, the well was washed twice with 60 μL of 60% (v/v) isopropanol solution. Then, 100 μL of the DMSO were added to each well and stirred for 5 min at room temperature. The absorbance was measured at 550 nm (ABS550) with a multi-plate reader (LabsSystems), and the stained amount by Oil Red 0 was determined. The measured level at ABS550 in the control group was defined as 100%, while the level at ABS550 in the blank group was defined as 0%. The differentiation rate (%) of the adipocytes treated with the test compound was calculated.

For a further test, the system named is leptin production. In words: Enhancing activity for leptin production in adipocytes (ELISA). The note with it: leptin concentration as % of control group; for Facilitating activity to produce leptin: 24 hr. It is filed as cell-based, rat. As for the experimental part: Hanks solution was used for collection of adipose tissue. The Hanks solution was prepared by filtration of a mixed solution (pH: 7.5) of 120 mM NaCl, 4.8 mM KCl, 0.74 mM MgSO4, 0.30 mM Na2HPO4, 0.40 mM KH2PO4, 20 mM HEPES, 0.05% (w/v) glucose, 2% (w/v) BSA (Sigma-Aldrich Japan K. K., Cat. No. A7888), 0.95 mM CaCl2, 4.17 mM NaHCO3 and 1% (v/v) penicillin-streptomycin liquid (GIBCO BRL, Cat. No. 15140-122). The adipocytes were cultured in Dulbecco's modified Eagle's medium (GIBCO BRL, Cat. No. 11995-040) mixed with DMEM/F-12 (GIBCO BRL, Cat. No. 11320-033) at a ratio of 1:1, and added 0.2% (v/v) Hanks solution, 0.2 μg/L sodium selenite (GIBCO BRL, Cat. No. 13012-018), 0.002% (v/v) ethanolamine, 25 mM HEPES and 1% (v/v) penicillin-streptomycin liquid (GIBCO BRL, Cat. No. 15140-122). As many as possible of the other reagents used were special grade. In this experiment, the cells were cultured in a CO2 incubator (37° C., 95% humidity, 5% CO2).
Male Wistar Imamichi rats of 6 weeks old were sacrificed by bleeding following decapitation, and adipose tissue was removed from the epididymis and sectioned after the vessels were removed in warmed Hanks solution at 37° C. and were weighed. One (1) mL of Hanks solution containing 10 mg collagenase (Wako Pure Chemical Industries, Ltd., 034-10533) was added to the adipose tissue prepared. The solution was transferred into a tube having a volume of 50 mL, and the cells were evenly dispersed by incubation under gentle shaking at 37° C., 90 rpm, for 50 min. Then 20 mL of Hanks solution were added and filtrated through Nylon-mesh with a mesh diameter of 200 μm for removal of undigested tissue pieces. The floating adipocytes were separated from sediments and substances located in the lower layer by centrifugation at 1,000 rpm for 1 min at room temperature. The sediment and 22 mL of the low layer were pulled out with a probe, and the floating adipocytes were recovered. This procedure was repeated twice with Hanks solution and for 4 times with the culture medium. After these procedures the adipocytes were suspended in the culture medium at a volume of 60 mL per 1 g of the adipose tissue weighed previously. 100 μL of the suspended solution were plated in each well of a 96-well microplate (ASAHI TECHNO GLASS Corp.) In the group treated with the test compound, 1 μL/well of DMSO solution containing the dissolved the test compound at concentrations of 200 μM, 20 μM, 2 μM and 0.2 μM (final concentrations of the test compound: 1 μM, 100 nM, 10 nM and 1 nM, respectively) was plated in each of the well. In the control group, 1 μL/well of DMSO (final concentration: 0.1% (v/v)) was plated in each well. The plate was placed stationary in a CO2 incubator for 1 hr or longer, and the contents in the solution were equilibrated at 37° C. After they were equilibrated, the solution in each well was stirred with a magnetic stirrer in a water bath and the suspended solution maintained at 37° C. was plated into each well of the plate at 100 μL/well. After incubation of the cells for 24 hr, the suspended solution of cells was filtrated through a filter for the microplate, MultiScreen (MILLOPORE, MDV-N65). The concentration of leptin in the filtrated solution was determined with ELISA methods by using a Rat Leptin Determination Kit-IBL (Immuno-Biological Laboratories Co., Ltd., Cat. No. 17195). The facilitating activity of the compound to produce leptin was calculated from the following equation based on the concentration of leptin determined.
Facilitating Activity of the Compound to Produce Leptin (%)=(A/B)×100
A: Concentration of Leptin in the Treated Group with the Test Compound.
B: Concentration of Leptin in the Control Group.
Background: An ELISA detects its analyte on a solid surface through an enzyme-linked reagent.

Where [2] appears, read: Rattus norvegicus, Adipocyte, 24 h, read-out: Facilitating activity to produce leptin.
Setting [3] is: Rattus norvegicus, Adipocyte, 24 h, 100 nm, read-out: Facilitating activity to produce leptin.

With `N#Cc1ccccc1NC(=O)c1cc([N+](=O)[O-])ccc1Cl` [Example 22, N-(2-Cyanophenyl)-(2-chloro-5-nitrophenyl)carboxamide], the activity at 0.1 µM stood at 51.5% in test [1] and 127% in the test on Rat white adipocytes.

As for `O=C(Nc1ncc(Br)s1)c1cc([N+](=O)[O-])ccc1Cl` [Example 48, N-(5-Bromothiazol-2-yl)-(2-chloro-5-nitrophenyl)carboxamide], the activity at 0.1 µM stood at 70.3% in test [1] and 131% with Rat white adipocytes.

Turning to `CC(C)(C)c1cc(C(=O)Nc2cccc(NC(=O)c3cc([N+](=O)[O-])ccc3Cl)c2)cc(C(C)(C)C)c1O` [Example 162, N-[3-[(3,5-di-tert-Butyl-4-hydroxybenzoyl)amino]phenyl]-(2-chloro-5-nitrophenyl)carboxamide], the activity at 1 µM with leptin production (setting [2]) was determined as 111%. Further, the activity at 0.1 µM in the test with Rat white adipocytes was determined as 170%.

For the molecule `CC(C)(C)OC(=O)N1CCN(C(=O)c2ccc(NC(=O)c3cc([N+](=O)[O-])ccc3Cl)cc2)CC1` [Example 166, N-[4-(4-tert-Butoxycarbonylpiperazin-1-ylcarbonyl)phenyl]-(2-chloro-5-nitrophenyl)carboxamide], the activity at 1 µM in the test on leptin production (setting [2]) amounted to 114%. The activity at 0.1 µM in the test on leptin production (setting [3]) and in the test on Rat white adipocytes was 115% in each case.

For `Cl.NCCc1ccc(NC(=O)c2cc([N+](=O)[O-])ccc2Cl)cc1` [Example 169, N-[4-(2-Aminoethyl)phenyl]-(2-chloro-5-nitrophenyl)carboxamide Hydrochloride 0.2 Hydrate], in the test on leptin production (100 nm), the “Facilitating activity to produce leptin” value is given as 111.6%. In addition, the “Rate of Differentiation (%)” value in the test on Rat white adipocytes was found to be 114.9%.

As for `O=C(O)Cc1ccc(NC(=O)c2cc([N+](=O)[O-])ccc2Cl)cc1` [Example 170, [4-(2-Chloro-5-nitrobenzoylamino)phenyl]acetic Acid], the activity at 0.1 µM with leptin production (setting [3]) was found to be 117%; with Rat white adipocytes, 115%.

Consider `CN(C)c1ccc(NC(=O)c2cc([N+](=O)[O-])ccc2Cl)cc1` [Example 173, N-(4-Dimethylaminophenyl)-(2-chloro-5-nitrophenyl)carboxamide], for which the activity at 1 µM in the test on leptin production (setting [2]) turned out to be 119%. Also, in the test with leptin production (Rattus norvegicus, Adipocyte, 24 h, 1 nm, read-out: Facilitating activity to produce leptin), the activity at 0.001 µM came out at 112%. Moreover, the activity at 0.1 µM in the test with Rat white adipocytes is 134%.

For `CC(=O)N1CCN(c2ccc(NC(=O)c3cc([N+](=O)[O-])ccc3Cl)cc2)CC1` [Example 183, N-[4-(4-Acetylpiperazin-1-yl)phenyl]-(2-chloro-5-nitrophenyl)carboxamide], the activity at 0.1 µM in the test on leptin production (setting [3]) turned out to be 112%; with Rat white adipocytes, 118%.

As for `O=C(Nc1ccc(S(=O)(=O)Nc2ccc(-n3ccnc3)cc2)cc1)c1cc([N+](=O)[O-])ccc1Cl` [Example 187, N-[[4-[4-(Imidazol-1-yl)phenyl]aminosulfonyl]phenyl]-(2-chloro-5-nitrophenyl)carboxamide], the “Facilitating activity to produce leptin” value in the test with leptin production (10 nm) was 113.3%; in the test with leptin production (100 nm), 126.2%. The “Rate of Differentiation (%)” value in the test on Rat white adipocytes is recorded as 112.7%.
